From patent publication US11179368B2, “Substituted indoline derivatives as dengue viral replication inhibitors” (JANSSEN PHARMACEUTICALS, INC., priority 2017, dated 2021)
pEC50: −log10 of the molar value.

Legend:
[1] = system: DENV-2 16681 strain; assay: DENV-2 antiviral assay (eGFP-labeled virus in Vero cells); type: cell-based, Dengue virus; settings: for pEC50: DENV-2 16681 eGFP, Vero cells, MOI 0.5, 3 days; for SI: SI=CC50/EC50, DENV-2 antiviral assay
[2] = in vitro; settings: African green monkey
[3] = Dengue virus, DENV2, Vero, 72 h

| Structure (SMILES) | pEC50 [1, 3] | SI [1] | CC50 [2] [nM] | pEC50 [1] |
| --- | --- | --- | --- | --- |
| COc1cc(NC(C(=O)N2CCc3ccc(C(F)(F)F)cc32)c2ccc(F)cc2OCCO)cc(S(C)(=O)=O)c1 (racemic) [Compound 1, 2-(4-fluoro-2-(2-hydroxyethoxy)phenyl)-2-((3-methoxy-5-(methylsulfonyl)phenyl)amino)-1-(6-(trifluoromethyl)indolin-1-yl)ethan-1-one] | 8.49 | 4397 | 14000 |  |
| COc1cc(NC(C(=O)N2CCc3cc(OC)c(C(F)(F)F)cc32)c2ccc(F)cc2OCCO)cc(S(C)(=O)=O)c1 (racemic) [Compound 2, 2-(4-fluoro-2-(2-hydroxyethoxy)phenyl)-2-((3-methoxy-5-(methylsulfonyl)phenyl)amino)-1-(5-methoxy-6-(trifluoromethyl)indolin-1-yl)ethanone] | 9.00 | 13700 | 12000 |  |
| COc1cc(NC(C(=O)N2CCc3ccc(OC(F)(F)F)cc32)c2ccc(F)cc2OCCO)cc(S(C)(=O)=O)c1 (racemic) [Compound 3, 2-(4-fluoro-2-(2-hydroxyethoxy)phenyl)-2-((3-methoxy-5-(methylsulfonyl)phenyl)amino)-1-(6-(trifluoromethoxy)indolin-1-yl)ethanone] | 9.13 | 10700 | 7900 |  |
| COc1cc(NC(C(=O)N2CCc3ccc(C(F)(F)F)cc32)c2ccc(Cl)cc2OCCO)cc(S(C)(=O)=O)c1 (racemic) [Compound 4, 2-(4-chloro-2-(2-hydroxyethoxy)phenyl)-2-((3-methoxy-5-(methylsulfonyl)phenyl)amino)-1-(6-(trifluoromethyl)indolin-1-yl)ethanone] | 9.18 | 11600 | 7700 |  |
| COc1cc(NC(C(=O)N2CCc3cc(OC)c(C(F)(F)F)cc32)c2ccc(Cl)cc2OCCO)cc(S(C)(=O)=O)c1 (racemic) [Compound 5, 2-(4-chloro-2-(2-hydroxyethoxy)phenyl)-2-((3-methoxy-5-(methylsulfonyl)phenyl)amino)-1-(5-methoxy-6-(trifluoromethyl)indolin-1-yl)ethanone] | 9.15 | 15700 | 11000 |  |
| COc1cc(NC(C(=O)N2CCc3ccc(OC(F)(F)F)cc32)c2ccc(Cl)cc2OCCO)cc(S(C)(=O)=O)c1 (racemic) [Compound 6, 2-(4-chloro-2-(2-hydroxyethoxy)phenyl)-2-((3-methoxy-5-(methylsulfonyl)phenyl)amino)-1-(6-(trifluoromethoxy)indolin-1-yl)ethanone] | 9.37 | 7070 | 3600 |  |
| COc1cc(NC(C(=O)N2CCc3ccc(C(F)(F)F)cc32)c2ccc(Cl)cc2OCCCC(=O)O)cc(S(C)(=O)=O)c1 (racemic) [Compound 7, 4-(5-chloro-2-(1-((3-methoxy-5-(methylsulfonyl)phenyl)amino)-2-oxo-2-(6-(trifluoromethyl)indolin-1-yl)ethyl)phenoxy)butanoic acid] | 9.24 | 21800 | 13000 |  |
| COc1cc(NC(C(=O)N2CCc3cc(OC)c(C(F)(F)F)cc32)c2ccc(Cl)cc2OCCCC(=O)O)cc(S(C)(=O)=O)c1 (racemic) [Compound 8, 4-(5-chloro-2-(1-((3-methoxy-5-(methylsulfonyl)phenyl)amino)-2-(5-methoxy-6-(trifluoromethyl)indolin-1-yl)-2-oxoethyl)phenoxy)butanoic acid] | 8.72 | 7460 | 14000 |  |
| COc1cc(NC(C(=O)N2CCc3ccc(OC(F)(F)F)cc32)c2ccc(Cl)cc2OCCCC(=O)O)cc(S(C)(=O)=O)c1 (racemic) [Compound 9, 4-(5-chloro-2-(1-((3-methoxy-5-(methylsulfonyl)phenyl)amino)-2-oxo-2-(6-(trifluoromethoxy)indolin-1-yl)ethyl)phenoxy)butanoic acid] | 9.51 | 40200 | 12000 |  |
| COc1cc(NC(C(=O)N2CCc3ccc(OC(F)(F)F)cc32)c2ccc(F)cc2OCCO)cc(S(C)(=O)=O)c1 (single isomer, unassigned) [Compound 3A] |  | 19 | 11000 | 6.24 |
| COc1cc(NC(C(=O)N2CCc3cc(OC)c(C(F)(F)F)cc32)c2ccc(Cl)cc2OCCO)cc(S(C)(=O)=O)c1 (single isomer, unassigned) [Compound 5A] |  | 210 | 16000 | 7.12 |
| COc1cc(NC(C(=O)N2CCc3ccc(C(F)(F)F)cc32)c2ccc(Cl)cc2OCCCC(=O)O)cc(S(C)(=O)=O)c1 (single isomer, unassigned) [Compound 7A] |  | 165 | 11000 | 7.16 |
| COc1cc(NC(C(=O)N2CCc3cc(OC)c(C(F)(F)F)cc32)c2ccc(Cl)cc2OCCCC(=O)O)cc(S(C)(=O)=O)c1 (single isomer, unassigned) [Compound 8A] |  | 126 | 12000 | 7.02 |
| COc1cc(NC(C(=O)N2CCc3ccc(OC(F)(F)F)cc32)c2ccc(Cl)cc2OCCCC(=O)O)cc(S(C)(=O)=O)c1 (single isomer, unassigned) [Compound 9A] |  | 93 | 12000 | 6.92 |
